Drawing on patent US8110689B2, “Benzanilides with insecticidal activity” (Bayer Cropsciene AG, priority 2006, dated 2012), this text covers insect mortality and melting point for seven compounds.

The test system of the first series is organophosphorous- and carbamate-resistant Myzus persicae. As to conditions: 100 ppm; 7 days after application; 28° C. greenhouse.
`CSC[C@H](C)NC(=O)c1c(Cl)cccc1C(=O)Nc1ccc(Cc2cc(Br)cc(Br)c2)cc1C` [compound 152]: the insect mortality is reported as 100%.
Compound `CSC[C@H](C)NC(=O)c1c(Cl)cccc1C(=O)Nc1ccc(Cc2cc(C(F)(F)F)cc(C(F)(F)F)c2)cc1C` [Compound No. 19] registered an insect mortality of 100%.

System in the next series: not given
Conditions: not given
The melting point is the temperature, or range, at which the solid turns liquid. Regarding `Cc1cc(Cc2cc(C(F)(F)F)cc(C(F)(F)F)c2)ccc1NC(=O)c1cccc(Cl)c1C(=O)N[C@@H](C)CS(C)(=O)=O`, the melting point was 155 to 158 °C.
`Cc1cc(Cc2cc(C(F)(F)F)cc(C(F)(F)F)c2)ccc1NC(=O)c1cccc(Cl)c1C(=O)N[C@@H](C)C[S+](C)[O-]` (stereo partly shown) showed a melting point of 162 to 165 °C.
For the compound `CSC[C@H](C)NC(=O)c1c(Cl)cccc1C(=O)Nc1ccc(Cc2cc(C(F)(F)F)cc(C(F)(F)F)c2)cc1C`, the melting point is 57 to 62 °C.
In turn, `CSC[C@H](C)NC(=O)c1c(Cl)cccc1C(=O)Nc1ccc(Cc2cc(C(F)(F)F)cc(C(F)(F)F)c2)nc1C` displayed a melting point of 73 to 79 °C.
For the compound `CSC[C@H](C)NC(=O)c1c(C)cccc1C(=O)Nc1ccc(Cc2cc(C(F)(F)F)cc(C(F)(F)F)c2)cc1C`, the melting point lay in the range of 85 to 94 °C.
